The results in this text go back to US9062078B2, “Substituted 7-azabicyles and their use as orexin receptor modulators” (priority 2013, dated 2015).

Where two headings read alike, the source gives them in different places.

Assay [1] deals with human orexin 2 receptor (Homo sapiens (Human), UniProt O43614). Description: Human orexin 2 receptor radioligand binding (competitive, [3H]-EMPA, HEK293 cell preparations).
The target of assay [2] is human orexin 1 receptor (Homo sapiens (Human), UniProt O43613). Description: Human orexin 1 receptor radioligand binding (competitive, [3H]-SB674042, CHO cell preparations).
human orexin 1 receptor, sequence (O43613 whole entry): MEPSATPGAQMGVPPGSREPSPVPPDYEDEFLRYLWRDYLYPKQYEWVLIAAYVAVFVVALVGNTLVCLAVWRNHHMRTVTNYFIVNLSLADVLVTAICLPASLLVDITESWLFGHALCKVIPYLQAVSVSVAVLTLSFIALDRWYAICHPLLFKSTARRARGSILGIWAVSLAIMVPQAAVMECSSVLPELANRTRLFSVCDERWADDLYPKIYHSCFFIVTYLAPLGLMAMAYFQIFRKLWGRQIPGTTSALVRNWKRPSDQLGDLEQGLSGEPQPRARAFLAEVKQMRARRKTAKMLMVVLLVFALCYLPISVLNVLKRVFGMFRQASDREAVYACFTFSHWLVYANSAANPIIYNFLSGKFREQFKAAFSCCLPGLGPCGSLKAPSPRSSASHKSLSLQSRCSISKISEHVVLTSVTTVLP
Where [3] appears, read: human orexin 2 receptor, [3H]-EMPA competition binding, read-out: hOX2 Ki (nm).
Setting [4] is: human orexin 1 receptor, [3H]-SB674042 competition binding, read-out: hOX1 Ki (nm).

human orexin 2 receptor, sequence (O43614 whole entry): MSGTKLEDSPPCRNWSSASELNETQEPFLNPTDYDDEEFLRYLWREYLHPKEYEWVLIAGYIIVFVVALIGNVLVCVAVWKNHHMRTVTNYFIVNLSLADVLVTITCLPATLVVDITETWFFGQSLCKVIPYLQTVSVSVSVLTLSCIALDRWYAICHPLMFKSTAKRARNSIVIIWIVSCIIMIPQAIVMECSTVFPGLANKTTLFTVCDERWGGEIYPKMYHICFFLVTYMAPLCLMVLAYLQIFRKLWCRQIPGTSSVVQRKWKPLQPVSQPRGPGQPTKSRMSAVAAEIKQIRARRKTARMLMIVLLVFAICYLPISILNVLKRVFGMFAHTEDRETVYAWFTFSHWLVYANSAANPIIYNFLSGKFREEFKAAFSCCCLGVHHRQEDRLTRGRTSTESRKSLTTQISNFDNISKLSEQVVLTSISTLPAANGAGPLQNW

Take `Cc1cc(C)nc(OCC2CC3CCC2N3C(=O)c2c(F)cccc2-c2ncccn2)n1` (racemic) [Example 43, (±)-(2-(((4,6-dimethylpyrimidin-2-yl)oxy)methyl)-7-azabicyclo[2.2.1]heptan-7-yl)(2-fluoro-6-(pyrimidin-2-yl)phenyl)methanone]: the results for the inhibition constant (Ki) in assay [1] (setting [3]) and in assay [2] (setting [4]) were 92 nM and 222 nM, respectively.

With `Cc1cc(C)nc(OCC2CC3CCC2N3C(=O)c2cc(F)ccc2-c2ncccn2)n1` (racemic) [Example 44, (±)-(2-(((4,6-dimethylpyrimidin-2-yl)oxy)methyl)-7-azabicyclo[2.2.1]heptan-7-yl)(5-fluoro-2-(pyrimidin-2-yl)phenyl)methanone], the results for the inhibition constant Ki in assay [1] (setting [3]) and in assay [2] (hOX1 Ki (nm)) were 104 nM and 400 nM, respectively.

Turning to `Cc1ccc(-c2ncccn2)c(C(=O)N2C3CCC2C(COc2nc(C)cc(C)n2)C3)c1` (racemic) [Example 45, (±)-(2-(((4,6-dimethylpyrimidin-2-yl)oxy)methyl)-7-azabicyclo[2.2.1]heptan-7-yl)(5-methyl-2-(pyrimidin-2-yl)phenyl)methanone], the values for the Ki in assay [1] (setting [3]) and in assay [2] (setting [4]) were 59 nM and 79 nM, respectively.

As to `Cc1cc(C)nc(OCC2CC3CCC2N3C(=O)c2ccccc2-c2cccs2)n1` (racemic) [Example 46, (±)-(2-(((4,6-dimethylpyrimidin-2-yl)oxy)methyl)-7-azabicyclo[2.2.1]heptan-7-yl)(2-(thiophen-2-yl)phenyl)methanone], the Ki came out at 10 nM in assay [1] (setting [3]) and 82 nM in assay [2] (setting [4]).

Turning to `Cc1noc(-c2ccccc2C(=O)N2C3CCC2C(COc2ccccn2)C3)n1` (racemic) [Example 127, (±)-(2-(3-methyl-1,2,4-oxadiazol-5-yl)phenyl)(2-((pyridin-2-yloxy)methyl)-7-azabicyclo[2.2.1]heptan-7-yl)methanone], the Ki turned out to be 1100 nM in assay [1] (setting [3]) and 190 nM in assay [2] (setting [4]).

On to `Cc1ccc(C(=O)N2C3CCC2C(COc2ccccn2)C3)c(-n2nccn2)n1` (racemic) [Example 128, (±)-(6-methyl-2-(2H-1,2,3-triazol-2-yl)pyridin-3-yl)(2-((pyridin-2-yloxy)methyl)-7-azabicyclo[2.2.1]heptan-7-yl)methanone], for which the results for the inhibition constant (Ki) in assay [1] (setting [3]) and in assay [2] (setting [4]) were no less than 10000 nM and 5700 nM, respectively.

`O=C(c1cccc(F)c1-n1nccn1)N1C2CCC1C(COc1ccccn1)C2` (racemic) [Example 129, (±)-(3-fluoro-2-(2H-1,2,3-triazol-2-yl)phenyl)(2-((pyridin-2-yloxy)methyl)-7-azabicyclo[2.2.1]heptan-7-yl)methanone]: the Ki was 1000 nM in assay [1] (setting [3]) and 190 nM in assay [2] (setting [4]).

Turning to `Cc1ccc(C(=O)N2C3CCC2C(COc2ccccn2)C3)c(-n2ccnn2)n1` (racemic) [Example 130, (±)-(6-methyl-2-(1H-1,2,3-triazol-1-yl)pyridin-3-yl)(2-((pyridin-2-yloxy)methyl)-7-azabicyclo[2.2.1]heptan-7-yl)methanone], the inhibition constant Ki in assay [1] (setting [3]) came to 7200 nM; in assay [2] (setting [4]), 3700 nM.

Regarding `Cc1ccc(C(=O)N2C3CCC2C(COc2nccc(C(F)(F)F)n2)C3)c(-n2nccn2)n1` (racemic) [Example 131, (±)-(6-methyl-2-(2H-1,2,3-triazol-2-yl)pyridin-3-yl)(2-(((4-(trifluoromethyl)pyrimidin-2-yl)oxy)methyl)-7-azabicyclo[2.2.1]heptan-7-yl)methanone], the inhibition constant Ki in assay [1] (hOX2 Ki (nm)) and in assay [2] (hOX1 Ki (nm)) was no less than 10000 nM throughout.

With `Cc1ccc(C(=O)N2C3CCC2C(COc2nccc(C(F)(F)F)n2)C3)c(-n2ccnn2)n1` (racemic) [Example 132, (±)-(6-methyl-2-(1H-1,2,3-triazol-1-yl)pyridin-3-yl)(2-(((4-(trifluoromethyl)pyrimidin-2-yl)oxy)methyl)-7-azabicyclo[2.2.1]heptan-7-yl)methanone], the inhibitory constant (Ki) is 7400 nM in assay [1] (setting [3]) and no less than 10000 nM in assay [2] (hOX1 Ki (nm)).

Consider `Cc1noc(-c2ccccc2C(=O)N2C3CCC2C(COc2nccc(C(F)(F)F)n2)C3)n1` (racemic) [Example 133, (±)-(2-(3-methyl-1,2,4-oxadiazol-5-yl)phenyl)(2-(((4-(trifluoromethyl)pyrimidin-2-yl)oxy)methyl)-7-azabicyclo[2.2.1]heptan-7-yl)methanone], for which the results for the Ki in assay [1] (setting [3]) and in assay [2] (setting [4]) were 950 nM and 1400 nM, respectively.

In the case of `O=C(c1cccc(F)c1-n1nccn1)N1C2CCC1C(COc1nccc(C(F)(F)F)n1)C2` (racemic) [Example 134, (±)-(3-fluoro-2-(2H-1,2,3-triazol-2-yl)phenyl)(2-(((4-(trifluoromethyl)pyrimidin-2-yl)oxy)methyl)-7-azabicyclo[2.2.1]heptan-7-yl)methanone], the Ki stood at 690 nM in assay [1] (hOX2 Ki (nm)) and 1500 nM in assay [2] (hOX1 Ki (nm)).

As for `Cc1ccc(OCC2CC3CCC2N3C(=O)c2ccc(C)nc2-n2nccn2)nc1` (racemic) [Example 135, (±)-(6-methyl-2-(2H-1,2,3-triazol-2-yl)pyridin-3-yl)(2-(((5-methylpyridin-2-yl)oxy)methyl)-7-azabicyclo[2.2.1]heptan-7-yl)methanone], the Ki worked out at 3900 nM in assay [1] (setting [3]) and 5400 nM in assay [2] (hOX1 Ki (nm)).

In the case of `Cc1ccc(OCC2CC3CCC2N3C(=O)c2ccc(C)nc2-n2ccnn2)nc1` (racemic) [Example 136, (±)-(6-methyl-2-(1H-1,2,3-triazol-1-yl)pyridin-3-yl)(2-(((5-methylpyridin-2-yl)oxy)methyl)-7-azabicyclo[2.2.1]heptan-7-yl)methanone], the values for the inhibition constant (Ki) in assay [1] (setting [3]) and in assay [2] (hOX1 Ki (nm)) were 1200 nM and 6800 nM, respectively.

Regarding `Cc1ccc(OCC2CC3CCC2N3C(=O)c2ccccc2-c2nc(C)no2)nc1` (racemic) [Example 137, (±)-(2-(3-methyl-1,2,4-oxadiazol-5-yl)phenyl)(2-(((5-methylpyridin-2-yl)oxy)methyl)-7-azabicyclo[2.2.1]heptan-7-yl)methanone], the Ki in assay [1] (setting [3]) is 425 nM; in assay [2] (setting [4]), 950 nM.

As for `Cc1ccc(OCC2CC3CCC2N3C(=O)c2cccc(F)c2-n2nccn2)nc1` (racemic) [Example 138, (±)-(3-fluoro-2-(2H-1,2,3-triazol-2-yl)phenyl)(2-(((5-methylpyridin-2-yl)oxy)methyl)-7-azabicyclo[2.2.1]heptan-7-yl)methanone], the Ki in assay [1] (setting [3]) amounted to 250 nM; in assay [2] (setting [4]), 606 nM.

With `Cc1cccc(OCC2CC3CCC2N3C(=O)c2ccc(C)nc2-n2nccn2)n1` (racemic) [Example 139, (±)-(6-methyl-2-(2H-1,2,3-triazol-2-yl)pyridin-3-yl)(2-(((6-methylpyridin-2-yl)oxy)methyl)-7-azabicyclo[2.2.1]heptan-7-yl)methanone], the Ki in assay [1] (setting [3]) was determined as 6500 nM; in assay [2] (setting [4]), 4400 nM.

`Cc1cccc(OCC2CC3CCC2N3C(=O)c2ccc(C)nc2-n2ccnn2)n1` (racemic) [Example 140, (±)-(6-methyl-2-(1H-1,2,3-triazol-1-yl)pyridin-3-yl)(2-(((6-methylpyridin-2-yl)oxy)methyl)-7-azabicyclo[2.2.1]heptan-7-yl)methanone]: the Ki stood at 2300 nM in assay [1] (setting [3]) and 3100 nM in assay [2] (setting [4]).

With `Cc1cccc(OCC2CC3CCC2N3C(=O)c2ccccc2-c2nc(C)no2)n1` (racemic) [Example 141, (±)-(2-(3-methyl-1,2,4-oxadiazol-5-yl)phenyl)(2-(((6-methylpyridin-2-yl)oxy)methyl)-7-azabicyclo[2.2.1]heptan-7-yl)methanone], the inhibition constant Ki in assay [1] (setting [3]) is 300 nM; in assay [2] (setting [4]), 280 nM.

For orientation: Ki means a measure of affinity in units of concentration, obtained from inhibition or displacement.
